# Data as given in paper PMC6709486, “Safety, Tolerability, Pharmacokinetics, and Drug Interaction Potential of SPR741, an Intravenous Potentiator, after Single and Multiple Ascending Doses and When Combined with β-Lactam Antibiotics in Healthy Subjects” (Antimicrobial Agents and Chemotherapy, 2019).
# Peptide text beside a SMILES is read from it.
# How the values were obtained:
# [1] = clinical; design: species or system human; conditions: in vivo, iv
# Text: The SAD/MAD study was a phase 1, double-blind, placebo-controlled, multicohort trial. Part 1 used a SAD design according to which subjects received a single i.v. dose of SPR741. Part 2 used a MAD design in which subjects received multiple daily i.v. doses of SPR741 over a period of 14 days. The objective was to assess the safety/tolerability and PK of single and multiple ascending doses of SPR741. In the SAD phase, healthy volunteers were screened within 28 days prior to dosing. Subjects were admitted to the clinical facility on day −1 for up to 3 days. A single dose of SPR741 (or placebo) was administered on day 1. Following completion of all safety assessments and sampling for PK analyses, subjects were discharged on day 2. A follow-up visit occurred 5 to 7 days after day 1 dosing. In the MAD phase, all subjects were admitted to the clinical facility on day −1. Dosing commenced on the morning of day 1. Three doses were administered daily at approximately 8 (±0.5)-h intervals for a total of 14 consecutive days. The last dose was administered on the morning of day 14. Blood and urine samples were collected for assessment of PK parameters. Subjects were discharged on day 16 following completion of all PK sample collection and safety assessments, and a follow-up visit occurred 5 to 7 days after the last dose. In the SAD phase, subjects were randomized to one of eight cohorts that received doses of 5, 15, 50, 100, 200, 400, 600 or 800 mg of SPR741. Within each cohort, two subjects received placebo, and six received SPR741. In cohort 1, two subjects (sentinels) were dosed with SPR741 or placebo 48 h prior to dosing of the remaining subjects. The remaining six subjects were dosed only after no safety concerns were identified in the sentinel subjects. After each dose cohort had completed administration of study drug and evaluation, a Safety Monitoring Group reviewed blinded cumulative safety data (including day 5 to day 7 follow-up data) to confirm the safety and tolerability of SPR741.
# [2] = design: species or system human; conditions: in vivo
# Procedure: In the SAD phase, healthy volunteers were screened within 28 days prior to dosing. Subjects were admitted to the clinical facility on day −1 for up to 3 days. A single dose of SPR741 (or placebo) was administered on day 1. Following completion of all safety assessments and sampling for PK analyses, subjects were discharged on day 2. A follow-up visit occurred 5 to 7 days after day 1 dosing. In the MAD phase, all subjects were admitted to the clinical facility on day −1. Dosing commenced on the morning of day 1. Three doses were administered daily at approximately 8 (±0.5)-h intervals for a total of 14 consecutive days. The last dose was administered on the morning of day 14. Blood and urine samples were collected for assessment of PK parameters. Subjects were discharged on day 16 following completion of all PK sample collection and safety assessments, and a follow-up visit occurred 5 to 7 days after the last dose.
smiles,measurement,setting,value
"CC(=O)N[C@H](C(=O)N[C@H](CO)C(=O)N[C@H]1CCNC(=O)[C@H]([C@@H](C)O)NC(=O)[C@H](CCN)NC(=O)[C@H](CCN)NC(=O)[C@H](CC(C)C)NC(=O)[C@@H](Cc2ccccc2)NC(=O)[C@H](CCN)NC1=O)[C@@H](C)O [SPR741] (HELM PEPTIDE1{[ac].T.[dS].[Dab].[Dab].[dF].L.[Dab].[Dab].T}$PEPTIDE1,PEPTIDE1,4:R3-10:R2$$$V2.0)",Tmax,[1]; human,1 h
same,AUC(0-inf),"[1]; human, 5 mg",1010 ng·h/mL
same,Cmax,"[1]; human, 5 mg",370 ng/mL
same,Vd,"[1]; human, 5 mg",14.4 L
same,clearance,"[1]; human, 5 mg",83.3 mL/min
same,half-life,"[1]; human, 5 mg",2.02 h
same,AUC(0-inf),"[1]; human, 15 mg",3090 ng·h/mL
same,Cmax,"[1]; human, 15 mg",924 ng/mL
same,Vd,"[1]; human, 15 mg",19.7 L
same,clearance,"[1]; human, 15 mg",84 mL/min
same,half-life,"[1]; human, 15 mg",2.81 h
same,AUC(0-inf),"[1]; human, 50 mg",9740 ng·h/mL
same,Cmax,"[1]; human, 50 mg",3250 ng/mL
same,Vd,"[1]; human, 50 mg",18.4 L
same,clearance,"[1]; human, 50 mg",86.3 mL/min
same,half-life,"[1]; human, 50 mg",2.48 h
same,AUC(0-inf),"[1]; human, 100 mg",18200 ng·h/mL
same,Cmax,"[1]; human, 100 mg",6010 ng/mL
same,Vd,"[1]; human, 100 mg",20.6 L
same,clearance,"[1]; human, 100 mg",92.5 mL/min
same,half-life,"[1]; human, 100 mg",2.57 h
same,AUC(0-inf),"[1]; human, 200 mg",37300 ng·h/mL
same,Cmax,"[1]; human, 200 mg",13400 ng/mL
same,Vd,"[1]; human, 200 mg",20.3 L
same,clearance,"[1]; human, 200 mg",91 mL/min
same,half-life,"[1]; human, 200 mg",2.62 h
same,AUC(0-inf),"[1]; human, 400 mg",82200 ng·h/mL
same,Cmax,"[1]; human, 400 mg",26000 ng/mL
same,Vd,"[1]; human, 400 mg",24.5 L
same,clearance,"[1]; human, 400 mg",81.5 mL/min
same,half-life,"[1]; human, 400 mg",3.47 h
same,AUC(0-inf),"[1]; human, 600 mg",133000 ng·h/mL
same,Cmax,"[1]; human, 600 mg",38000 ng/mL
same,Vd,"[1]; human, 600 mg",24.6 L
same,clearance,"[1]; human, 600 mg",77 mL/min
same,half-life,"[1]; human, 600 mg",3.76 h
same,AUC(0-inf),"[1]; human, 800 mg",190000 ng·h/mL
same,Cmax,"[1]; human, 800 mg",52600 ng/mL
same,Vd,"[1]; human, 800 mg",21.2 L
same,clearance,"[1]; human, 800 mg",70.8 mL/min
same,half-life,"[1]; human, 800 mg",3.46 h
same,time of peak mean plasma concentration,[1],approximately 1 h
same,fraction of the dose excreted from 0 to 24 h postdose on day 14,[2],139.1%
